Experimental data from patent US4351948A, “Imidazole hydrazone derivatives” (priority 1980, dated 1982).
Where a name gives a salt, the structure may show the parent alone. Read-outs that look alike come from different tables or passages of the source.

Legend:
[1] = tested on: platelet thromboxane generation; experiment: Inhibition of platelet thromboxane generation (TxB2, collagen-stimulated human platelet rich plasma); assay type: cell-based; settings: 10 min, read-out: Activity IC50 (50% inhibition of TxB2 generation)
Procedure: The compounds used according to the invention as anti-thrombotics were tested by the following method for their ability to inhibit platelet thromboxane generation.
Human venous blood was collected from healthy male donors, who had denied any medication in the previous 14 days. Nine volumes of blood were mixed with one volume of 3.24% trisodium citrate. The citrated blood was centrifuged at 160 g for 10 mins. at 22° C. to obtain platelet rich plasma (PRP). The platelets were then counted on a Coulter counter, and the platelet count was adjusted to 200,000 per μl with plasma.
The PRP was then dispensed as aliquots into micro-Eppendorf tubes, maintained at 37° C. in a dry bath. The compounds dissolved either in saline, ethanol, or DMSO were added in duplicate to the PRP aliquots to produce final concentrations of 0.3, 3 and 30 μg/ml. When ethanol and DMSO were used as the vehicle, triplicate controls containing the same percentage of vehicle as the test compounds were made. The final concentration or organic solvent was never more than 0.1%, which in previous experiments had no effect on TxB2 generation.
Following a 10 min. incubation with test compounds or vehicle, collagen was added to produce a final concentration of 8 μg/ml. The tubes were then whirly-mixed for 15 seconds and replaced in the dry bath for a further 10 minutes, controls received saline instead of collagen. The reaction was then stopped by rapid centrifugation, 15,000 g for 3 mins. The plasma was removed and frozen at -29° C. until assayed.
Briefly, 100 μl aliquots, in tricine buffered saline+0.8% gelatin (pH 8.0) of the following were incubated together for 1 hour at 37° C.: thromboxane Tx B2 (plasma extract, spiked plasma extract or standards 20 to 20,000 pg/ml), ^3 H--TxB2 (approximately 15,000 dpm) and anti-TxB2 antiserum (0.5 μg/100 μl). The free and protein bound ^3 H--TxB2 were separated by ammonium sulphate precipitation followed by centrifugation. 300 μl of the supernatant was added to an aqueous scintillation fluid, and the radioactivity present was counted in a liquid scintillation counter. The binding of ^3 H--TxB2 in the absence of added TxB2 was approximately 55%. The least amount of TxB2 to be detected accurately in the plasma was 0.08 ng/ml. Cross reactivity with other prostaglandins is less than 0.005% except PGD2 which is 1%.
Thus plasma samples were assayed to give a rough approximation of TxB2 content. The plasma was then appropriately diluted and assayed in duplicate to give accurate values.
The amount of TxB2 generated by the collagen was calculated by subtracting mean values obtained for the saline stimulated platelets from the mean values obtained from the collagen stimulated platelets. Then the amount of TxB2 generated in the presence of each concentration of compound was expressed as a % control and dose response curves were then constructed to determine the concentration of compound which produced a 50% inhibition.

in vivo = settings: male mice, 7 day; for LD12.5: p.o.
T. vaginalis ATCC 30001 = experiment: Antianaerobic activity, MIC by standard broth dilution method (Table II); assay type: cell-based; settings: Trichomonas vaginalis, ATCC30001, 24 h, read-out: Minimal Inhibitory Concentration (MIC)
Procedure: (§1) The activity of the compounds identified in the Table II below was tested for antianaerobic activity against one strain of Bacteroides fragilis, one strain of Bacteroides uniformis, one strain of Clostridium sporogenes and one strain of Trichomonas vaginalis as the test organism. The methods used involved determining the minimum inhibitory concentration by the standard broth dilution method. […] For convenience the compounds are referred to by an internal reference number (an HC number) and this is correlated with the number of the Example wherein its production is described.

B. uniformis ATCC 8492 = experiment: as above; assay type: cell-based; settings: Bacteroides uniformis, ATCC8492, 24 h, read-out: Minimal Inhibitory Concentration (MIC)
Procedure: as §1

B. fragilis ATCC 23745 = experiment: as above; assay type: cell-based; settings: Bacteroides fragilis, ATCC23745, 24 h, read-out: Minimal Inhibitory Concentration (MIC)
Procedure: as §1

C. sporogenes ATCC 19404 = experiment: as above; assay type: cell-based; settings: Clostridium sporogenes, ATCC19404, 24 h, read-out: Minimal Inhibitory Concentration (MIC)
Procedure: The activity of the compounds identified in the Table II below was tested for antianaerobic activity against one strain of Bacteroides fragilis, one strain of Bacteroides uniformis, one strain of Clostridium sporogenes and one strain of Trichomonas vaginalis as the test organism. The methods used involved determining the minimum inhibitory concentration by the standard broth dilution method. The values for metronidazole (2-methyl-5-nitro-1H-imidazole-1-ethanol) are given above for reference purposes. For convenience the compounds are referred to by an internal reference number (an HC number) and this is correlated with the number of the Example wherein its production is described.

[2] = collagen 8 μg/ml, human PRP, 10 min. incubation, 37° C.

Clc1ccccc1C(Cn1ccnc1)=NNc1c(Cl)cccc1Cl [HC 365, 1-(2-chlorophenyl)-2-(1H-imidazol-1-yl)ethanone, 2,6-dichlorophenylhydrazone, hydrochloride]
IC50 [1, 2]: 3.6 µM

Clc1ccc(/C(Cn2ccnc2)=N\Nc2ccccc2Cl)cc1 [HC 500, (E)-1-(4-chlorophenyl)-2-(1H-imidazol-1-yl)ethanone, 2-chlorophenylhydrazone, hydrochloride]
IC50 [1, 2]: > 80 µM

Clc1ccc(C(Cn2ccnc2)=NNc2ccccc2)cc1 [HC 290, 1-(4-Chlorophenyl)-2-(1H-imidazol-1-yl)ethanone, phenylhydrazone, hydrochloride]
IC50 [1, 2]: 4.9 µM

N#Cc1ccc(C(Cn2ccnc2)=NNc2c(Cl)cccc2Cl)cc1 [HC 416, 1-(4-cyanophenyl)-2-(1H-imidazol-1-yl)ethanone, 2,6-dichlorophenylhydrazone, hydrochloride]
IC50 [1, 2]: 13.8 µM

Clc1ccc(C(Cn2ccnc2)=NNc2cc(Cl)cc(Cl)c2)cc1 [HC 346, 1-(4-chlorophenyl)-2-(1H-imidazol-1-yl) ethanone, 3,5-dichlorophenylhydrazone]
IC50 [1, 2]: 2.7 µM

O=[N+]([O-])c1cccc(C(Cn2ccnc2)=NNc2c(Cl)cccc2Cl)c1 [HC 402, 1-(3-nitrophenyl)-2-(1H-imidazol-1-yl)ethanone, 2,6-dichlorophenylhydrazone, hydrochloride]
IC50 ([1]; Homo sapiens): 0.7 µM

O=[N+]([O-])c1ccc(NN=C(Cn2ccnc2)c2ccccc2Cl)c([N+](=O)[O-])c1 [HC 336, 1-(2-chlorophenyl)-2-(1H-imidazol-1-yl) ethanone, 2,4-dinitrophenylhydrazone, hydrochloride]
IC50 ([1]; Homo sapiens): 0.9 µM

Clc1ccc(C(Cn2ccnc2)=NNc2c(Cl)cccc2Cl)c(Cl)c1 [HC 377, 1-(2,4-dichlorophenyl)-2-(1H-imidazol-1-yl)ethanone, 2,6-dichlorophenylhydrazone, hydrochloride]
IC50 [1, 2]: 2.7 µM

C[C@@H]1[C@H](O)[C@@H](C)/C=C/C=C/C=C/C=C/C=C/C=C/C=C/[C@H](O[C@@H]2O[C@H](C)[C@@H](O)[C@H](N)[C@@H]2O)C[C@@H]2O[C@](O)(C[C@@H](O)C[C@@H](O)[C@H](O)CC[C@@H](O)C[C@@H](O)CC(=O)O[C@H]1C)C[C@H](O)[C@H]2C(=O)O [Amphotericin B]
LD12.5 (in vivo): 280 mg/kg

Nc1nc(=O)[nH]cc1F [5-Fluorocytosine]
LD50 at 168 h (in vivo; mouse, in vivo, iv, read-out: LD50): 500 mg/kg | LD12.5 (in vivo): 500 mg/kg

CC(C(=NNc1c(Cl)cc(Cl)cc1Cl)c1ccc(Cl)cc1)n1ccnc1 (stereo not shown) [HC-561, 1-(4-chlorophenyl)-2-(1H-imidazol-1-yl)propanone, 2,4,6-trichlorophenylhydrazone, hydrochloride]
MIC (T. vaginalis ATCC 30001; Test 1): > 100 µg/mL | MIC (T. vaginalis ATCC 30001; Test 2): > 100 µg/mL | MIC (T. vaginalis ATCC 30001; Test 3): > 100 µg/mL | MIC (B. uniformis ATCC 8492; Test 1): 5 µg/mL | MIC (B. uniformis ATCC 8492; Test 2): 7.5 µg/mL | MIC (B. uniformis ATCC 8492; Test 3): 7.5 µg/mL | MIC (B. fragilis ATCC 23745; Test 1): 1 µg/mL | MIC (B. fragilis ATCC 23745; Test 2): 2.5 µg/mL | MIC (B. fragilis ATCC 23745; Test 3): 5 µg/mL | MIC (C. sporogenes ATCC 19404; Test 1): 1 µg/mL | MIC (C. sporogenes ATCC 19404; Test 2): 1 µg/mL | MIC (C. sporogenes ATCC 19404; Test 3): 1 µg/mL

FC(F)(F)c1ccccc1C(Cn1ccnc1)=NNc1c(Cl)cccc1Cl [HC 418, 1-(2-trifluoromethylphenyl)-2-(1H-imidazol-1-yl)ethanone, 2,6-dichlorophenylhydrazone, hydrochloride]
IC50 [1, 2]: 20.9 µM

Cl.Clc1cccc(Cl)c1NN=C(Cn1ccnc1)c1ccc(Br)s1 [HC-466, 1-(5-bromothien-2-yl)-2-(1H-imidazol-1-yl)ethanone, 2,6-dichlorophenylhydrazone, hydrochloride]
MIC (T. vaginalis ATCC 30001; Test 1): 50 µg/mL | MIC (T. vaginalis ATCC 30001; Test 2): 50 µg/mL | MIC (T. vaginalis ATCC 30001; Test 3): 50 µg/mL | MIC (B. uniformis ATCC 8492; Test 1): 1 µg/mL | MIC (B. uniformis ATCC 8492; Test 2): 5 µg/mL | MIC (B. uniformis ATCC 8492; Test 3): 5 µg/mL | MIC (B. fragilis ATCC 23745; Test 1): 1 µg/mL | MIC (B. fragilis ATCC 23745; Test 2): 5 µg/mL | MIC (B. fragilis ATCC 23745; Test 3): 5 µg/mL | MIC (C. sporogenes ATCC 19404; Test 1): 5 µg/mL | MIC (C. sporogenes ATCC 19404; Test 2): 5 µg/mL | MIC (C. sporogenes ATCC 19404; Test 3): 5 µg/mL

Cl.Clc1ccc(NN=C(Cn2ccnc2)c2ccccc2)c(Cl)c1 [HC-306, 1-Phenyl-2-(1H-imidazol-1-yl)ethanone, 2,4-dichlorophenylhydrazone, hydrochloride]
MIC (T. vaginalis ATCC 30001; Test 1): 50 µg/mL | MIC (T. vaginalis ATCC 30001; Test 2): 50 µg/mL | MIC (T. vaginalis ATCC 30001; Test 3): 25 µg/mL | MIC (B. uniformis ATCC 8492; Test 1): 10 µg/mL | MIC (B. uniformis ATCC 8492; Test 2): 2.5 µg/mL | MIC (B. uniformis ATCC 8492; Test 3): 2.5 µg/mL | MIC (B. fragilis ATCC 23745; Test 1): 10 µg/mL | MIC (B. fragilis ATCC 23745; Test 2): 2.5 µg/mL | MIC (B. fragilis ATCC 23745; Test 3): 2.5 µg/mL | MIC (C. sporogenes ATCC 19404; Test 1): 10 µg/mL | MIC (C. sporogenes ATCC 19404; Test 2): 2.5 µg/mL | MIC (C. sporogenes ATCC 19404; Test 3): 2.5 µg/mL

Cl.Clc1ccc(C(Cn2ccnc2)=NNc2ccccc2Br)cc1 [HC-486, 1-(4-chlorophenyl)-2-(1H-imidazol-1-yl)ethanone, 2-bromophenylhydrazone, hydrochloride]
MIC (T. vaginalis ATCC 30001; Test 1): 50 µg/mL | MIC (T. vaginalis ATCC 30001; Test 2): 50 µg/mL | MIC (T. vaginalis ATCC 30001; Test 3): 75 µg/mL | MIC (B. uniformis ATCC 8492; Test 1): 2.5 µg/mL | MIC (B. uniformis ATCC 8492; Test 2): 2.5 µg/mL | MIC (B. uniformis ATCC 8492; Test 3): 5 µg/mL | MIC (B. fragilis ATCC 23745; Test 1): 5 µg/mL | MIC (B. fragilis ATCC 23745; Test 2): 5 µg/mL | MIC (B. fragilis ATCC 23745; Test 3): 5 µg/mL | MIC (C. sporogenes ATCC 19404; Test 1): 2.5 µg/mL | MIC (C. sporogenes ATCC 19404; Test 2): 5 µg/mL | MIC (C. sporogenes ATCC 19404; Test 3): 5 µg/mL

Cl.FC(F)(F)c1cccc(C(Cn2ccnc2)=NNc2c(Cl)cccc2Cl)c1 [HC474, 1-(3-trifluoromethylphenyl)-2-(1H-imidazol-1-yl)ethanone, 2,6-dichlorophenylhydrazone, hydrochloride]
MIC (T. vaginalis ATCC 30001; Test 2): 50 µg/mL | MIC (T. vaginalis ATCC 30001; Test 3): 50 µg/mL | MIC (B. uniformis ATCC 8492; Test 1): 10 µg/mL | MIC (B. uniformis ATCC 8492; Test 2): 5 µg/mL | MIC (B. uniformis ATCC 8492; Test 3): 7.5 µg/mL | MIC (B. fragilis ATCC 23745; Test 1): 5 µg/mL | MIC (B. fragilis ATCC 23745; Test 2): 7.5 µg/mL | MIC (B. fragilis ATCC 23745; Test 3): 7.5 µg/mL | MIC (C. sporogenes ATCC 19404; Test 1): 7.5 µg/mL | MIC (C. sporogenes ATCC 19404; Test 2): 5 µg/mL | MIC (C. sporogenes ATCC 19404; Test 3): 5 µg/mL

Fc1ccccc1C(Cn1ccnc1)=NNc1ccc(Cl)cc1Cl [HC 426, 1-(2-fluorophenyl)-2-(1H-imidazol-1-yl)ethanone, 2,4-dichlorophenylhydrazone, hydrochloride]
IC50 [1, 2]: 5.5 µM

Clc1cccc(Cl)c1NN=C(Cn1ccnc1)c1ccccc1 [HC 368, 1-phenyl-2-(1H-imidazol-1-yl)ethanone, 2,6-dichlorophenylhydrazone, hydrochloride]
IC50 [1, 2]: 0.8 µM
